Tests used:
late watergrass = assay: Test Example 1: herbicidal activity, application before weed generation under submerged conditions (Table 16, symbol A); type: in vivo, late watergrass (Echinochloa oryzicola); details: amount of applied herbicide 320 g/ha
Method in brief: (§1)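 Alluvial soil was flooded to 4 cm depth, weed seeds were sown mixed and 2.5-leaf rice seedlings were transplanted. On sowing day, the compound's emulsion, diluted in water to a set dose, was applied to the water surface. Plants grew at 25–30 °C and were scored 0–5 after three weeks.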

Japanese bulrush = assay: Test Example 1: herbicidal activity, application before weed generation under submerged conditions (Table 16, symbol B); type: in vivo, Japanese bulrush (Schoenoplectus juncoides); details: amount of applied herbicide 320 g/ha
Method in brief: as §1

oval-leafed pondweed = assay: Test Example 1: herbicidal activity, application before weed generation under submerged conditions (Table 16, symbol C); type: in vivo, oval-leafed pondweed (Monochoria vaginalis); details: amount of applied herbicide 320 g/ha
Method in brief: as §1

barnyard grass [1] = assay: Test Example 3: herbicidal effect by foliage application, Wagner pot (Table 18, symbol H); type: in vivo, barnyard grass (Echinochloa crus-galli); details: 320 g/ha
Method in brief: (§2)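 Plants were sown in alluvial soil held under 0.1–0.5 cm standing water and grown 14 days in a greenhouse at 25–30 °C. An emulsifiable formulation, water-diluted to the set dose, was then sprayed onto the foliage, and effects were scored three weeks later using previously defined criteria.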

Chinese sprangletop = assay: Test Example 3: herbicidal effect by foliage application, Wagner pot (Table 18, symbol D); type: in vivo, chinese sprangletop (Leptochloa chinensis); details: 320 g/ha
Method in brief: as §2

rice flat sedge = assay: Test Example 3: herbicidal effect by foliage application, Wagner pot (Table 18, symbol E); type: in vivo, rice flat sedge (Cyperus iria); details: 320 g/ha
Method in brief: as §2

southern crabgrass [2] = assay: Test Example 4: herbicidal effect by soil treatment (Table 19, symbol F); type: in vivo, southern crabgrass (Digitaria ciliaris); details: amount of applied herbicide 320 g/ha
Method in brief: (§3)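 Soil-surface application: an emulsion agent diluted with water to the predetermined dose is sprayed uniformly over seeds lying under roughly 1.5 cm of sterilized diluvial soil. Boxes stay in a greenhouse at 25° C. to 30° C. Three weeks later, each species is graded on previously defined criteria.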

green foxtail [3] = assay: Test Example 4: herbicidal effect by soil treatment (Table 19, symbol G); type: in vivo, green foxtail (Setaria viridis); details: amount of applied herbicide 320 g/ha
Method in brief: as §3

barnyard grass [4] = assay: Test Example 4: herbicidal effect by soil treatment (Table 19, symbol H); type: in vivo, barnyard grass (Echinochloa crus-galli); details: amount of applied herbicide 320 g/ha
Method in brief: as §3

wild oat [5] = assay: Test Example 4: herbicidal effect by soil treatment (Table 19, symbol I); type: in vivo, wild oat (Avena fatua); details: amount of applied herbicide 320 g/ha
Method in brief: as §3

blackgrass [6] = assay: Test Example 4: herbicidal effect by soil treatment (Table 19, symbol J); type: in vivo, blackgrass (Alopecurus myosuroides); details: amount of applied herbicide 320 g/ha
Method in brief: as §3

Italian ryegrass [7] = assay: Test Example 4: herbicidal effect by soil treatment (Table 19, symbol K); type: in vivo, Italian ryegrass (Lolium multiflorum); details: amount of applied herbicide 320 g/ha
Method in brief: as §3

windgrass [8] = assay: Test Example 4: herbicidal effect by soil treatment (Table 19, symbol L); type: in vivo, windgrass (Apera spica-venti); details: amount of applied herbicide 320 g/ha
Method in brief: as §3

velvetleaf [9] = assay: Test Example 4: herbicidal effect by soil treatment (Table 19, symbol M); type: in vivo, velvetleaf (Abutilon theophrasti); details: amount of applied herbicide 320 g/ha
Method in brief: as §3

redroot pigweed [10] = assay: Test Example 4: herbicidal effect by soil treatment (Table 19, symbol N); type: in vivo, redroot pigweed (Amaranthus retroflexus); details: amount of applied herbicide 320 g/ha
Method in brief: as §3

lambsquarters [11] = assay: Test Example 4: herbicidal effect by soil treatment (Table 19, symbol O); type: in vivo, lambsquarters (Chenopodium album); details: amount of applied herbicide 320 g/ha
Method in brief: as §3

chickweed [12] = assay: Test Example 4: herbicidal effect by soil treatment (Table 19, symbol P); type: in vivo, common chickweed (Stellaria media); details: amount of applied herbicide 320 g/ha
Method in brief: as §3

persian speedwell [13] = assay: Test Example 4: herbicidal effect by soil treatment (Table 19, symbol R); type: in vivo, Persian speedwell (Veronica persica); details: amount of applied herbicide 320 g/ha
Method in brief: as §3

southern crabgrass [14] = assay: Test Example 5: herbicidal effect by foliage application, plastic box (Table 20, symbol F); type: in vivo, southern crabgrass (Digitaria ciliaris); details: 320 g/ha, foliage application after 14-day growth, evaluated three weeks after application
Method in brief: (§4)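 Sow seeds spot-wise in sterilized diluvial soil; cover with ~1.5 cm soil. Grow 14 days in greenhouse, 25° C. to 30° C. Spray foliage with emulsion diluted to predetermined amount. Rate effect after 3 weeks.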

green foxtail [15] = assay: Test Example 5: herbicidal effect by foliage application, plastic box (Table 20, symbol G); type: in vivo, green foxtail (Setaria viridis); details: 320 g/ha, foliage application after 14-day growth, evaluated three weeks after application
Method in brief: as §4

barnyard grass [16] = assay: Test Example 5: herbicidal effect by foliage application, plastic box (Table 20, symbol H); type: in vivo, barnyard grass (Echinochloa crus-galli); details: 320 g/ha, foliage application after 14-day growth, evaluated three weeks after application
Method in brief: as §4

wild oat [17] = assay: Test Example 5: herbicidal effect by foliage application, plastic box (Table 20, symbol I); type: in vivo, wild oat (Avena fatua); details: 320 g/ha, foliage application after 14-day growth, evaluated three weeks after application
Method in brief: as §4

blackgrass [18] = assay: Test Example 5: herbicidal effect by foliage application, plastic box (Table 20, symbol J); type: in vivo, blackgrass (Alopecurus myosuroides); details: 320 g/ha, foliage application after 14-day growth, evaluated three weeks after application
Method in brief: as §4

Italian ryegrass [19] = assay: Test Example 5: herbicidal effect by foliage application, plastic box (Table 20, symbol K); type: in vivo, Italian ryegrass (Lolium multiflorum); details: 320 g/ha, foliage application after 14-day growth, evaluated three weeks after application
Method in brief: as §4

windgrass [20] = assay: Test Example 5: herbicidal effect by foliage application, plastic box (Table 20, symbol L); type: in vivo, windgrass (Apera spica-venti); details: 320 g/ha, foliage application after 14-day growth, evaluated three weeks after application
Method in brief: as §4

velvetleaf [21] = assay: Test Example 5: herbicidal effect by foliage application, plastic box (Table 20, symbol M); type: in vivo, velvetleaf (Abutilon theophrasti); details: 320 g/ha, foliage application after 14-day growth, evaluated three weeks after application
Method in brief: as §4

redroot pigweed [22] = assay: Test Example 5: herbicidal effect by foliage application, plastic box (Table 20, symbol N); type: in vivo, redroot pigweed (Amaranthus retroflexus); details: 320 g/ha, foliage application after 14-day growth, evaluated three weeks after application
Method in brief: as §4

lambsquarters [23] = assay: Test Example 5: herbicidal effect by foliage application, plastic box (Table 20, symbol O); type: in vivo, lambsquarters (Chenopodium album); details: 320 g/ha, foliage application after 14-day growth, evaluated three weeks after application
Method in brief: as §4

chickweed [24] = assay: Test Example 5: herbicidal effect by foliage application, plastic box (Table 20, symbol P); type: in vivo, common chickweed (Stellaria media); details: 320 g/ha, foliage application after 14-day growth, evaluated three weeks after application
Method in brief: as §4

persian speedwell [25] = assay: Test Example 5: herbicidal effect by foliage application, plastic box (Table 20, symbol R); type: in vivo, Persian speedwell (Veronica persica); details: 320 g/ha, foliage application after 14-day growth, evaluated three weeks after application
Method in brief: as §4

**Q.** With CCCC(=O)Oc1c(C)nn(C)c(=O)c1-c1c(-c2ccc(OC(F)(F)F)cc2)sc2c(F)cccc12 [4-049] as the molecule, how does the “Herbicidal effect, A: late watergrass” value (late watergrass) read?
**A.** The value was 3 (Herbicidal rate of 40% or more and less than 70%).

**Q.** And the “Herbicidal effect, B: Japanese bulrush” value (Japanese bulrush)?
**A.** Its value is 0 (Herbicidal rate of 5% or less (almost no effect)).

**Q.** What about the “Herbicidal effect, C: oval-leafed pondweed” value (oval-leafed pondweed) of the same molecule?
**A.** The value was 0 (Herbicidal rate of 5% or less (almost no effect)).

**Q.** And the “herbicidal effect on barnyard grass (H)” value (barnyard grass [1])?
**A.** Its value is 5 (Herbicidal rate of 90% or more (almost completely withered)).

**Q.** What about the “herbicidal effect on Chinese sprangletop (D)” value (Chinese sprangletop) of the same molecule?
**A.** The value was 3 (Herbicidal rate of 40% or more and less than 70%).

**Q.** What about the “herbicidal effect on rice flat sedge (E)” value (rice flat sedge) of the same molecule?
**A.** Its value is 5 (Herbicidal rate of 90% or more (almost completely withered)).

**Q.** What about the “Herbicidal effect by soil treatment, F: southern crabgrass” value (southern crabgrass [2]) of the same molecule?
**A.** The value was 0 (Herbicidal rate of 5% or less (almost no effect)).

**Q.** What about the “Herbicidal effect by soil treatment, G: green foxtail” value (green foxtail [3]) of the same molecule?
**A.** Its value is 0 (Herbicidal rate of 5% or less (almost no effect)).

**Q.** What about the “Herbicidal effect by soil treatment, H: barnyard grass” value (barnyard grass [4]) of the same molecule?
**A.** Its value is 0 (Herbicidal rate of 5% or less (almost no effect)).

**Q.** What about the “Herbicidal effect by soil treatment, I: wild oat” value (wild oat [5]) of the same molecule?
**A.** The value was 0 (Herbicidal rate of 5% or less (almost no effect)).

**Q.** And the “Herbicidal effect by soil treatment, J: blackgrass” value (blackgrass [6])?
**A.** The value was 0 (Herbicidal rate of 5% or less (almost no effect)).

**Q.** What about the “Herbicidal effect by soil treatment, K: Italian ryegrass” value (Italian ryegrass [7]) of the same molecule?
**A.** Its value is 0 (Herbicidal rate of 5% or less (almost no effect)).

**Q.** And the “Herbicidal effect by soil treatment, L: windgrass” value (windgrass [8])?
**A.** Its value is 0 (Herbicidal rate of 5% or less (almost no effect)).

**Q.** And the “Herbicidal effect by soil treatment, M: velvetleaf” value (velvetleaf [9])?
**A.** The value was 0 (Herbicidal rate of 5% or less (almost no effect)).

**Q.** What about the “Herbicidal effect by soil treatment, N: redroot pigweed” value (redroot pigweed [10]) of the same molecule?
**A.** The value was 4 (Herbicidal rate of 70% or more and less than 90%).

**Q.** And the “Herbicidal effect by soil treatment, O: lambsquarters” value (lambsquarters [11])?
**A.** Its value is 3 (Herbicidal rate of 40% or more and less than 70%).

**Q.** And the “Herbicidal effect by soil treatment, P: chickweed” value (chickweed [12])?
**A.** The value was 3 (Herbicidal rate of 40% or more and less than 70%).

**Q.** What about the “Herbicidal effect by soil treatment, R: persian speedwell” value (persian speedwell [13]) of the same molecule?
**A.** The value was 4 (Herbicidal rate of 70% or more and less than 90%).

**Q.** What about the “herbicidal effect on F: southern crabgrass (evaluation grade 0-5)” value (southern crabgrass [14]) of the same molecule?
**A.** The value was 0 (Herbicidal rate of 5% or less (almost no effect)).

**Q.** And the “herbicidal effect on G: green foxtail (evaluation grade 0-5)” value (green foxtail [15])?
**A.** Its value is 4 (Herbicidal rate of 70% or more and less than 90%).

**Q.** What about the “herbicidal effect on H: barnyard grass (evaluation grade 0-5)” value (barnyard grass [16]) of the same molecule?
**A.** The value was 5 (Herbicidal rate of 90% or more (almost completely withered)).

**Q.** What about the “herbicidal effect on I: wild oat (evaluation grade 0-5)” value (wild oat [17]) of the same molecule?
**A.** The value was 0 (Herbicidal rate of 5% or less (almost no effect)).

**Q.** And the “herbicidal effect on J: blackgrass (evaluation grade 0-5)” value (blackgrass [18])?
**A.** Its value is 0 (Herbicidal rate of 5% or less (almost no effect)).

**Q.** And the “herbicidal effect on K: Italian ryegrass (evaluation grade 0-5)” value (Italian ryegrass [19])?
**A.** The value was 0 (Herbicidal rate of 5% or less (almost no effect)).

**Q.** And the “herbicidal effect on L: windgrass (evaluation grade 0-5)” value (windgrass [20])?
**A.** The value was 0 (Herbicidal rate of 5% or less (almost no effect)).

**Q.** And the “herbicidal effect on M: velvetleaf (evaluation grade 0-5)” value (velvetleaf [21])?
**A.** The value was 5 (Herbicidal rate of 90% or more (almost completely withered)).

**Q.** What about the “herbicidal effect on N: redroot pigweed (evaluation grade 0-5)” value (redroot pigweed [22]) of the same molecule?
**A.** Its value is 5 (Herbicidal rate of 90% or more (almost completely withered)).

**Q.** And the “herbicidal effect on O: lambsquarters (evaluation grade 0-5)” value (lambsquarters [23])?
**A.** The value was 3 (Herbicidal rate of 40% or more and less than 70%).

**Q.** What about the “herbicidal effect on P: chickweed (evaluation grade 0-5)” value (chickweed [24]) of the same molecule?
**A.** Its value is 5 (Herbicidal rate of 90% or more (almost completely withered)).

**Q.** What about the “herbicidal effect on R: persian speedwell (evaluation grade 0-5)” value (persian speedwell [25]) of the same molecule?
**A.** The value was 5 (Herbicidal rate of 90% or more (almost completely withered)).

Reference: patent US20230085307A1, “PYRIDAZINONE COMPOUND AND HERBICIDE” (NISSAN CHEMICAL CORPORATION, priority 2019, published 2023)
